Results taken from US20060099712A1, “Correlation of anti-cancer activity of dyes with redox potentials” (Eastman Kodak Company, priority 2004, published 2006).
Values joined by “and” are separate entries in the source; they are usually repeats but may differ in a detail not shown here. Equal values may be shown once.

Test system: CX-1 Human Colon Carcinoma
Assay: Clonogenic dye screening assay, CX-1 cells (IC50)
Assay type: cell-based
Design: CX: unit not given here
Conditions: for CV/CX (selectivity, kill ratio): ratio of IC50 in normal CV-1 line to IC50 in carcinoma CX-1 line; for CX: CX-1 cells; for CX (IC50 in the CX-1 cell line): 3 hrs treatment, colonies after 7-10 days, unit from method b117-118; for CV/C: selectivity ratio, value of 1 where dye inactive
Excerpt: CX-1 is a cancerous human colon adenocarcinoma cell line. CV-1 is a non-cancerous control, which is a kidney epithelial cell line from an African green monkey. IC50 is the dye concentration at which 50% of the cells are killed. Selectivity or kill ratio is defined as the ratio of […] at IC50 for both CX-1 and CV-1. A ratio with a high number indicates a high selectivity.
The dyes were screened in two cell lines. CX-1 is a human colon adenocarcinoma cell line. CV-1 is a kidney epithelial cell line from an African green monkey. CV-1 was used as a reference because no normal human epithelial cell line is available for clonogenic assay.
In the initial screen, dyes were examined at six different concentrations to generate a dose response curve. An IC50 value, the concentration at which 50% of the cells are killed, was then calculated. Initially, a dye concentration of 1.0 μg/mL was the highest examined for the CX-1 cell line and 0.005 μg/mL was the lower limit. The corresponding limits on the CV-1 cell line were […].
The screening procedure used a response curve that was determined from eight dye concentrations. The upper and lower limits of CX-1 were 0.32 and 0.0015 μg/mL, respectively, and the corresponding revised limits on CV-1 were 3.2 and 0.025 μg/mL. The screening results were reported by assigning an IC50 value to each dye for the CV-1 and CX-1 cell lines. These values will be referred to herein simply as CV and CX. The most desirable result would be to have a dye that was highly toxic to carcinoma cells but nontoxic to ‘normal’ cells. One measure of this type of selectivity is the ratio of the IC50's in the normal cell line to that in the carcinoma line, CV/CX.
Compounds are screened via an in vitro assay. CV-1 and CX-1 cells are seeded into separate assay plates. The plates are treated with varying concentrations of test compounds, rinsed, and colonies allowed to grow. IC50's are determined and drugs evaluated based on their selectivity and toxicity. Assay Steps: • I. Seeding Cells • II. Weighing • III. Preparation of Solution • IV. Treatment • V. Rinsing and Feeding • VI. Fixing • VII. IC50 Determination I. Seeding Cells
The cells should be seeded 16-30 hours before treatment. The media for CV-1 cells is DME+5% calf serum +5% Nuserum. The media for CX-1 cells is RPMI/DME (50/50)+5% calf serum +5% Nuserum.
(c) number of cells based on 2000 CX-1 cells/well and 1000 CV-1 cells/well. NOTE: Always make enough cell suspension for 1 extra plate to allow for volume loss during transfers.
• (a) For CV-1: 256 ug/ml-256 ul of 1 mg/ml stock +744 ul DMSO • (b) For CX-1: 25.6 ug/ml-100 ul of 256 ug/ml+900 ul DMSO IV. Treatment • 1. Each plate is treated with 4 test compounds, one positive control and one negative control. • 2. Serial dilutions of the compounds are made in the following way:
2 multi-well pipetters are used. One is set for 10 ul and one for 200 ul. Each is equipped with 6 tips spaced such that they fit into the 6 rows of a plate. 390 ul of media is added to the first column of each plate. 10 ul each of 4 compound solutions, a positive and a negative control are taken up and put into the first column of wells. The 200 ul pipetter is then placed in the same wells, pipetted up and down 3 times and two 200 ul aliquots are moved to the next column of wells. This column is pipetted up and down 3 times and 400 ul moved to column 3, etc. The final 400 ul excess from column 8 is discarded.
• 3. Label the plates along the front, each row −1 compound. • 4. Incubate the plates at 37° C. for 3 hrs. V. Rinsing • 1. Prepare several bottles of CX-1 and CV-1 media. • 2. Check for precipitate in first column of each plate and note. • 3. Starting with the plates treated first, rinse several plates at a time by aspirating the treatments and refilling each well with 0.5-1.0 ml of the rinse media. Aspirate and refill 2 more times for a total of 3 rinses. • 4.

[1] = Table XVI, selectivity ratio of IC50 values
[2] = Table XV, selectivity ratio of IC50 values
[3] = Table XXI, oxathiacarbocyanine nitrogen substituents
[4] = Table XX, thiacarbocyanine nitrogen substituents
[5] = Table XX, ratio given a value of 1 where dye inactive

Compound | CV/CX (selectivity, kill ratio) | CX [3] | CV/C (Table XXI) | other results
CCN1C(=CC=c2sc(=Cc3sc4c([n+]3CC)CCCC4)n(CC)c2=O)Oc2ccccc21.[I-] (mixture of isomers) [Dye D-170] | 100.0 |  |  | 
CCN1/C(=C/C=C/c2sc3ccccc3[n+]2CC)C(C)(C)c2ccccc21 [3H-indole (3,3-Me)] |  |  |  | CX (Table XVI, unsymmetrical dyes): 0.16; CV/CX [1]: 0.3
CCN1C=CC(=C/C=C/c2sc3ccccc3[n+]2CC)c2ccsc21 [4-thieno/2,3-b/pyridine] |  |  |  | CX (Table XVI, unsymmetrical dyes): 0.04; CV/CX [1]: 5.0
CC[n+]1c(/C=C/C=C2C=CC=CN2C)sc2ccccc21 [Dye 2-pyridine] |  |  |  | CX (Table XVI, unsymmetrical dyes): 0.08; CV/CX [1]: 50.0
CCN1C(=C/C=C/c2sc3ccccc3[n+]2C)C=Cc2ccccc21 [Dye 2-quinoline] |  |  |  | CX (Table XVI, unsymmetrical dyes): <0.005; CV/CX [1]: >20.0
CC[n+]1c(/C=C/C=C2C=CN(C)c3ccccc32)sc2ccccc21 [Dye 4-quinoline] |  |  |  | CX (Table XVI, unsymmetrical dyes): 0.01; CV/CX [1]: 40.0
CCN1C=C(c2ccccc2)SC1=CC=Cc1sc2ccccc2[n+]1CC [Dye 5-Ph-thiazole] |  |  |  | CX (Table XVI, unsymmetrical dyes): 0.03; CV/CX [1]: 16.7
CN1C(=CC=Cc2[te]c3ccccc3[n+]2C)[Te]c2ccccc21 [Dye B19682] |  |  |  | CX (Table XV, symmetrical dyes): 0.3; CV/CX [2]: 16.7
CCN1C(=CC=Cc2ccc3ccccc3[n+]2CC)C=Cc2ccccc21 [Dye B-301] |  |  |  | CX (Table XV, symmetrical dyes): 0.040; CV/CX [2]: 12.5
CCN1C(=CC=Cc2oc3ccccc3[n+]2CC)Oc2ccccc21 [Dye B-400] |  |  |  | CX (Table XV, symmetrical dyes): 0.10; CV/CX [2]: 30.0
CN1C(=CC=Cc2[se]c3ccccc3[n+]2C)[Se]c2ccccc21 [Dye B-405] |  |  |  | CX (Table XV, symmetrical dyes): 0.008; CV/CX [2]: 7.5
C(/C=C/c1sc2cccc3c2[n+]1CCC3)=C1/Sc2cccc3c2N1CCC3 [Dye D-102] | 160 |  |  | CX (IC50 in the CX-1 cell line): <0.005 mg/L
CCN1/C(=C/C=C/c2sc3cc(Cl)ccc3[n+]2CC)Sc2cc(Cl)ccc21 [Dye D-105] | 112.5 |  |  | CX (IC50 in the CX-1 cell line): 0.008 mg/L; Selectivity (Table 1, cell line not given, values equal CV/CX of Table II): 112.5
CCN(CC)CCN1/C(=C/C=C/c2oc3ccccc3[n+]2CC)Sc2ccccc21.I.[I-] [Dye D-116] | 80 |  |  | 
CCN1C=C(c2ccccc2)O/C1=C\C=C\c1oc(-c2ccccc2)c[n+]1CC.[I-] [Dye D-118] | 93.75 |  |  | CX (IC50 in the CX-1 cell line): 0.08 mg/L
CC[n+]1c(/C=C/C=C2\SC(C)=C(C)N2C)oc2ccccc21.[I-] [Dye D-119] | 60 |  |  | CX (IC50 in the CX-1 cell line): 0.05 mg/L
CCN1/C(=C/C=C/c2c3ccccc3c3ccccc3[n+]2C)Sc2ccccc21 [Dye D-129] | 87.5 |  |  | CX (IC50 in the CX-1 cell line): 0.008 mg/L; CX (Table XVI, unsymmetrical dyes): 0.008; CV/CX [1]: 87.5
CCn1c(=O)/c(=C/C=C2\C=Cc3cccc4c3N2CCC4)s/c1=C\c1oc2ccccc2[n+]1CC [Dye D-143] | 100 |  |  | CX (IC50 in the CX-1 cell line): 0.1 mg/L
CC[n+]1c(/C=C/C=C2\[Te]c3ccccc3N2C)sc2ccc3ccccc3c21.[I-] [Dye D-151] | 71 and 71.42 |  |  | CX (IC50 in the CX-1 cell line): 0.007 mg/L; CX (Table XVII, benzotellurazole derivatives): 0.007; CV/CX (Table XVII, selectivity ratio of IC50 values): 71.4
CCN1/C(=C/C=C/c2oc3ccc(-c4ccccc4)cc3[n+]2CCNC(C)=O)Sc2ccc(OC)cc21.F[B-](F)(F)F [Dye D-154] | 160 |  |  | CX (IC50 in the CX-1 cell line): 0.05 mg/L
CCN1/C(=C/C=C/c2sc3cc(Cl)ccc3[n+]2CC)Sc2cc(Cl)ccc21.[I-] [Dye D-164] | 112.5 |  |  | 

Compound | CV/CX (selectivity, kill ratio) | CX [3] | CV/C (Table XXI) | other results
CCN1/C(=C/C=C/c2sc3ccccc3[n+]2CC)Sc2ccccc21.[I-] [Dye D-165] | 100 |  |  | CV/CX [1]: 100.0
CCN1/C(=C/C(=C/c2oc3ccccc3[n+]2C)SC)Sc2ccc(Cl)cc21.[I-] [Dye D-169] | 100.0 |  |  | 
CCOC(=O)c1c(C)c(C=CC=C2SCCN2C)cc2[n+]1CCc1ccccc1-2.[O-][Cl+3]([O-])([O-])[O-] [Dye D-171] | 62.5 |  |  | 
C=C(Br)C[n+]1c(/C=C/C=C2\Oc3ccccc3N2CC)sc2ccccc21 [R1=CC(Br)═C, R2=Et] |  | 0.03 | 33.3 | 
CCN(CC)C(=O)C[n+]1c(/C=C/C=C2\Oc3ccccc3N2CC)sc2ccccc21 [R1=CC(═0)N(Et)2, R2=Et] |  | 0.3 | >33.3 | 
CCN1/C(=C/C=C/c2sc3ccccc3[n+]2CC(=O)c2ccccc2)Oc2ccccc21 [R1=CC(═0)Ph, R2=Et] |  | 0.3 | 10.0 | 
CCN1/C(=C/C=C/c2sc3ccccc3[n+]2CC(=O)c2ccc(O)cc2O)Oc2ccccc21 [R1=CC(═0)Ph-2,4-OH, R2=Et] |  | 0.3 | >33.3 | 
CCN1/C(=C/C=C/c2sc3ccccc3[n+]2CC(=O)c2ccc(O)c(O)c2)Oc2ccccc21 [R1=CC(═0)Ph-3,4-OH, R2=Et] |  | >1.0 | 1.0 | 
CCN1/C(=C/C=C/c2sc3ccccc3[n+]2CC(=O)N2CCOCC2)Oc2ccccc21 [R1=CC(═0)morpholino, R2=Et] |  | >1.0 | 1.0 | 
CCN1/C(=C/C=C/c2sc3ccccc3[n+]2CC(N)=O)Oc2ccccc21 [R1=CC(═O)N, R2=Et] |  |  | >10.0 | 
CCSC(CCN1/C(=C/C=C/c2sc3ccccc3[n+]2CCC(SCC)SCC)Sc2ccccc21)SCC [R1=CCC(SEt)2, R2=CCC(SEt)2] |  |  |  | CX [4]: >0.32; CV/CX [5]: 4.1
CCN1/C(=C/C=C/c2sc3ccccc3[n+]2CCC(=O)N(c2ccccc2)C(C)C)Oc2ccccc21 [R1=CCC(═O)N(iPr)Ph, R2=Et] |  | 0.03 | 26.7 | 
CCN1/C(=C/C=C/c2sc3ccccc3[n+]2CCC=O)Oc2ccccc21 [R1=CCC═0, R2=Et] |  | 0.1 | 50.0 | 
CCN1/C(=C/C=C/c2sc3ccccc3[n+]2CCC=NNC(N)=S)Oc2ccccc21 [R1=CCC═NNC(═S)N, R2=Et] |  | >1.0 | 1.0 | 
CCN1/C(=C/C=C/c2sc3ccccc3[n+]2CCC=NNS(=O)(=O)c2ccc(C)cc2)Oc2ccccc21 [R1=CCC═NNS02Ph-4C, R2=Et] |  | 0.3 | 33.3 | 
CCN1/C(=C/C=C/c2sc3ccccc3[n+]2CCNS(=O)(=O)c2ccc(C)cc2)Oc2ccccc21 [R1=CCNS02Ph-4C, R2=Et] |  | 0.3 | 26.7 | 
OCCN1/C(=C/C=C/c2sc3ccccc3[n+]2CCO)Sc2ccccc21 [R1=CCOH, R2=CCOH] |  |  |  | CX [4]: >0.32; CV/CX [5]: 1.0
CCN1/C(=C/C=C/c2sc3ccccc3[n+]2CCS(=O)(=O)CC)Oc2ccccc21 [R1=CCS02CC, R2=Et] |  | 0.3 | >33.3 | 
CSCCN1C(=CC=Cc2sc3ccccc3[n+]2CCSC)Sc2ccccc21 [R1=CCSMe, R2=CCSMe] |  |  |  | CX [4]: 0.015; CV/CX [5]: 12.0
CC[n+]1c(/C=C/C=C2\Oc3ccccc3N2CC(=O)c2ccccc2)sc2ccccc21 [R1=Et, R2=C(C═O)Ph] |  | 0.8 | 3.7 | 
CC[n+]1c(/C=C/C=C2\Oc3ccccc3N2CC(F)(F)F)sc2ccccc21 [R1=Et, R2=CC(F)3] |  | 0.1 | 50.0 | 
